# From PubChem BioAssay (NCI)
#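 In this assay, cells in 96-well plates receive the compound at five concentrations for 48 hours. Endpoints are linearly interpolated between the surrounding concentrations. TGI is the concentration that stops growth completely.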
# Experiments:
# Assay in all cases: growth of human tumour cells (NCI), 48 h
# SR leukemia = system: SR leukemia
# HT29 colon = system: HT29 colon
# SNB-75 CNS = system: SNB-75 CNS
# ACHN renal = system: ACHN renal
# MDA-MB-435 = system: MDA-MB-435
# NCI-H23 lung = system: NCI-H23 lung
# CCRF-CEM leukemia = system: CCRF-CEM leukemia
# PC-3 prostate = system: PC-3 prostate
# SF-295 CNS = system: SF-295 CNS
# EKVX NSCLC = system: EKVX NSCLC
# 786-0 renal = system: 786-0 renal
# SK-MEL-28 melanoma = system: SK-MEL-28 melanoma
# NCI-H460 lung = system: NCI-H460 lung
# OVCAR-5 ovarian = system: OVCAR-5 ovarian
# MCF7 breast = system: MCF7 breast
# UACC-62 melanoma = system: UACC-62 melanoma
# IGROV1 ovarian = system: IGROV1 ovarian
# U251 CNS = system: U251 CNS
# SF-268 CNS = system: SF-268 CNS
# SF-539 CNS = system: SF-539 CNS
# NCI-H522 lung = system: NCI-H522 lung
# LOX IMVI melanoma = system: LOX IMVI melanoma
# TK-10 renal = system: TK-10 renal
# HCC-2998 colon = system: HCC-2998 colon
# UACC-257 melanoma = system: UACC-257 melanoma
# MDA-MB-231 breast = system: MDA-MB-231 breast
# UO-31 renal = system: UO-31 renal
# HOP-62 NSCLC = system: HOP-62 NSCLC
# OVCAR-8 ovarian = system: OVCAR-8 ovarian
# MOLT-4 leukemia = system: MOLT-4 leukemia
# MDA-N = system: MDA-N
# KM12 colon = system: KM12 colon
# HL-60(TB) leukemia = system: HL-60(TB) leukemia
# HCT-116 colon = system: HCT-116 colon
# K-562 leukemia = system: K-562 leukemia
# BT-549 breast = system: BT-549 breast
# RPMI-8226 leukemia = system: RPMI-8226 leukemia
# HCT-15 colon = system: HCT-15 colon
# DU-145 prostate = system: DU-145 prostate
# RXF 393 renal = system: RXF 393 renal
# SN12C renal = system: SN12C renal
# M14 melanoma = system: M14 melanoma
# A549 NSCLC = system: A549 NSCLC
# SK-OV-3 ovarian = system: SK-OV-3 ovarian
# MALME-3M melanoma = system: MALME-3M melanoma
# OVCAR-4 ovarian = system: OVCAR-4 ovarian
# COLO 205 colon = system: COLO 205 colon
# NCI-H226 lung = system: NCI-H226 lung
# HS 578T breast = system: HS 578T breast
# SNB-19 CNS = system: SNB-19 CNS
# NCI/ADR-RES ovarian = system: NCI/ADR-RES ovarian
# SK-MEL-2 melanoma = system: SK-MEL-2 melanoma
# SK-MEL-5 melanoma = system: SK-MEL-5 melanoma
# OVCAR-3 ovarian = system: OVCAR-3 ovarian
# SW-620 colon = system: SW-620 colon
# A498 renal = system: A498 renal
# CAKI-1 renal = system: CAKI-1 renal
# HOP-92 NSCLC = system: HOP-92 NSCLC
smiles,measurement,setting,value
O=C(CCCN1CCC(Nc2ccccc2)(c2nnnn2C2CCCCC2)CC1)c1ccc(F)cc1,TGI,SR leukemia,> 100 µM
same,TGI,HT29 colon,14.6 µM
same,TGI,SNB-75 CNS,21.9 µM
same,TGI,ACHN renal,16.7 µM
same,TGI,MDA-MB-435,19.4 µM
same,TGI,NCI-H23 lung,28.8 µM
same,TGI,CCRF-CEM leukemia,44.6 µM
same,TGI,PC-3 prostate,24.7 µM
same,TGI,SF-295 CNS,41.8 µM
same,TGI,EKVX NSCLC,9.53 µM
same,TGI,786-0 renal,15.9 µM
same,TGI,SK-MEL-28 melanoma,12.3 µM
same,TGI,NCI-H460 lung,35 µM
same,TGI,OVCAR-5 ovarian,19.6 µM
same,TGI,MCF7 breast,5.74 µM
same,TGI,UACC-62 melanoma,23.9 µM
same,TGI,IGROV1 ovarian,23.2 µM
same,TGI,U251 CNS,18 µM
same,TGI,SF-268 CNS,9.25 µM
same,TGI,SF-539 CNS,5.66 µM
same,TGI,NCI-H522 lung,19.3 µM
same,TGI,LOX IMVI melanoma,> 100 µM
same,TGI,TK-10 renal,26.1 µM
same,TGI,HCC-2998 colon,32.1 µM
same,TGI,UACC-257 melanoma,6.65 µM
same,TGI,MDA-MB-231 breast,24.2 µM
same,TGI,UO-31 renal,12.8 µM
same,TGI,HOP-62 NSCLC,21.3 µM
same,TGI,OVCAR-8 ovarian,68.3 µM
same,TGI,MOLT-4 leukemia,46.2 µM
same,TGI,MDA-N,18.1 µM
same,TGI,KM12 colon,21.5 µM
same,TGI,HL-60(TB) leukemia,29.6 µM
same,TGI,HCT-116 colon,16.4 µM
same,TGI,K-562 leukemia,33.9 µM
same,TGI,BT-549 breast,20.4 µM
same,TGI,RPMI-8226 leukemia,25.1 µM
same,TGI,HCT-15 colon,> 100 µM
same,TGI,DU-145 prostate,15.5 µM
same,TGI,RXF 393 renal,22.4 µM
same,TGI,SN12C renal,41 µM
same,TGI,M14 melanoma,3.98 µM
same,TGI,A549 NSCLC,20.4 µM
same,TGI,SK-OV-3 ovarian,26.1 µM
same,TGI,MALME-3M melanoma,27.4 µM
same,TGI,OVCAR-4 ovarian,20.5 µM
same,TGI,COLO 205 colon,4.77 µM
same,TGI,NCI-H226 lung,36.5 µM
same,TGI,HS 578T breast,29.2 µM
same,TGI,SNB-19 CNS,21.4 µM
same,TGI,NCI/ADR-RES ovarian,> 100 µM
same,TGI,SK-MEL-2 melanoma,23.7 µM
same,TGI,SK-MEL-5 melanoma,3 µM
same,TGI,OVCAR-3 ovarian,24 µM
same,TGI,SW-620 colon,> 100 µM
CC(C)(C)OC(=O)NC(Cc1ccc(O)cn1)C(=O)O (stereo not drawn),TGI,SR leukemia,> 100 µM
same,TGI,HT29 colon,> 100 µM
same,TGI,SNB-75 CNS,> 100 µM
same,TGI,ACHN renal,> 100 µM
same,TGI,MDA-MB-435,> 100 µM
same,TGI,NCI-H23 lung,> 100 µM
same,TGI,PC-3 prostate,> 100 µM
same,TGI,SF-295 CNS,> 100 µM
same,TGI,EKVX NSCLC,> 100 µM
same,TGI,786-0 renal,> 100 µM
same,TGI,SK-MEL-28 melanoma,> 100 µM
same,TGI,NCI-H460 lung,> 100 µM
same,TGI,OVCAR-5 ovarian,> 100 µM
same,TGI,MCF7 breast,> 100 µM
same,TGI,IGROV1 ovarian,> 100 µM
same,TGI,U251 CNS,> 100 µM
same,TGI,SF-268 CNS,> 100 µM
same,TGI,SF-539 CNS,> 100 µM
same,TGI,NCI-H522 lung,> 100 µM
same,TGI,LOX IMVI melanoma,> 100 µM
same,TGI,TK-10 renal,> 100 µM
same,TGI,HCC-2998 colon,> 100 µM
same,TGI,A498 renal,> 100 µM
same,TGI,UACC-257 melanoma,> 100 µM
same,TGI,MDA-MB-231 breast,> 100 µM
same,TGI,UO-31 renal,> 100 µM
same,TGI,HOP-62 NSCLC,> 100 µM
same,TGI,OVCAR-8 ovarian,> 100 µM
same,TGI,MOLT-4 leukemia,> 100 µM
same,TGI,MDA-N,> 100 µM
same,TGI,KM12 colon,> 100 µM
same,TGI,HL-60(TB) leukemia,> 100 µM
same,TGI,CAKI-1 renal,> 100 µM
same,TGI,HCT-116 colon,> 100 µM
same,TGI,K-562 leukemia,> 100 µM
same,TGI,BT-549 breast,> 100 µM
same,TGI,RPMI-8226 leukemia,> 100 µM
same,TGI,HCT-15 colon,> 100 µM
same,TGI,DU-145 prostate,> 100 µM
same,TGI,RXF 393 renal,> 100 µM
same,TGI,SN12C renal,> 100 µM
same,TGI,A549 NSCLC,> 100 µM
same,TGI,MALME-3M melanoma,> 100 µM
same,TGI,HOP-92 NSCLC,> 100 µM
same,TGI,OVCAR-4 ovarian,> 100 µM
same,TGI,COLO 205 colon,> 100 µM
same,TGI,NCI-H226 lung,> 100 µM
same,TGI,HS 578T breast,> 100 µM
same,TGI,SNB-19 CNS,> 100 µM
same,TGI,NCI/ADR-RES ovarian,> 100 µM
same,TGI,SK-MEL-5 melanoma,> 100 µM
same,TGI,OVCAR-3 ovarian,> 100 µM
same,TGI,SW-620 colon,> 100 µM
